According to patent US10512268B2, “Herbicidal compounds” (Syngenta Participations AG, priority 2015, dated 2019):

Columns and labels:
Format in all cases: in vivo
[1] = test system: Amaranthus retoflexus (AMARE); assay: Further testing, post-emergence application; conditions: 1000 g/h, after 13 days
Procedure: (§1) Seeds of a variety of test species are sown in standard soil in pots (Lolium perenne (LOLPE), Solanum nigrum (SOLNI), Amaranthus retoflexus (AMARE), Setaria faberi (SETFA), Echinochloa crus-galli (ECHCG), Ipomoea hederacea (IPOHE)). After cultivation for one day (pre-emergence) or after 8 days cultivation (post-emergence) under controlled conditions in a glasshouse (at 24/16° C., day/night; 14 hours light; 65% humidity), the plants are sprayed with an aqueous spray solution derived from the formulation of the technical active ingredient in acetone/water (50:50) solution containing 0.5% Tween 20 (polyoxyethelyene sorbitan monolaurate, CAS RN 9005-64-5). Compounds are applied at 1000 g/h unless otherwise stated. The test plants are then grown in a glasshouse under controlled conditions in a glasshouse (at 24/16° C., day/night; 14 hours light; 65% humidity) and watered twice daily. After 13 days for pre and post-emergence, the test is evaluated for the percentage damage caused to the plant. The biological activities are shown in the following table on a five point scale (5=80-100%; 4=60-79%; 3=40-59%; 2=20-39%; 1=0-19%).

[2] = test system: Echinochloa crus-galli (ECHCG); assay: Further testing, post-emergence application; conditions: 1000 g/h, after 13 days
Procedure: as §1

[3] = test system: Ipomoea hederacea (IPOHE); assay: Further testing, post-emergence application; conditions: 1000 g/h, after 13 days
Procedure: as §1

Lolium perenne (LOLPE) [4] = assay: Further testing, post-emergence application; conditions: 1000 g/h, after 13 days
Procedure: as §1

Setaria faberi (SETFA) [5] = assay: Further testing, post-emergence application; conditions: 1000 g/h, after 13 days
Procedure: as §1

Solanum nigrum (SOLNI) [6] = assay: Further testing, post-emergence application; conditions: 1000 g/h, after 13 days
Procedure: as §1

[7] = test system: Amaranthus retoflexus (AMARE); assay: Further testing, pre-emergence application; conditions: 1000 g/h, after 13 days
Procedure: as §1

[8] = test system: Echinochloa crus-galli (ECHCG); assay: Further testing, pre-emergence application; conditions: 1000 g/h, after 13 days
Procedure: as §1

[9] = test system: Ipomoea hederacea (IPOHE); assay: Further testing, pre-emergence application; conditions: 1000 g/h, after 13 days
Procedure: as §1

Lolium perenne (LOLPE) [10] = assay: Further testing, pre-emergence application; conditions: 1000 g/h, after 13 days
Procedure: as §1

Setaria faberi (SETFA) [11] = assay: Further testing, pre-emergence application; conditions: 1000 g/h, after 13 days
Procedure: as §1

Solanum nigrum (SOLNI) [12] = assay: Further testing, pre-emergence application; conditions: 1000 g/h, after 13 days
Procedure: as §1

[13] = test system: Alopecurus myosuroides (ALOMY); assay: Comparative testing, glasshouse herbicide test, spray one day after sowing
Procedure: (§2) Seeds of a variety of test species are sown in standard soil in pots. After cultivation for one day under controlled conditions in a glasshouse (at 24/16° C., day/night; 14 hours light; 65% humidity), an aqueous spray solution derived from the formulation of the technical active ingredient in 0.6 ml acetone and 45 ml formulation solution containing 10.6% Emulsogen EL (Registry number 61791-12-6), 42.2% N-methyl pyrrolidone, 42.2% dipropylene glycol monomethyl ether (CAS RN 34590-94-8) and 0.2% X-77 (CAS RN 11097-66-8) is applied.
(§3) The test plants are then grown in a glasshouse under controlled conditions in a glasshouse (at 24/16° C., day/night; 14 hours light; 65% humidity) and watered twice daily. After 21 days, the test is evaluated (100=total damage to plant; 0=no damage to plant). Test plants (weed species) include: Alopecurus myosuroides (ALOMY), Bidens pilosa (BIDPI), Euphorbia heterophylla (EPHHL), Lolium perenne (LOLPE), Panicum milaceum (PANMI), Sida spinosa (SIDSP) and Stellaria media STEME).

Bidens pilosa (BIDPI) = assay: as above
Procedure: as §2, §3

[14] = test system: Euphorbia heterophylla (EPHHL); assay: as above
Procedure: as §2, §3

Lolium perenne (LOLPE) [15] = assay: as above
Procedure: as §2, §3

Panicum milaceum (PANMI) = assay: as above
Procedure: as §2, §3

Sida spinosa (SIDSP) = assay: as above
Procedure: as §2, §3

Stellaria media (STEME) = assay: as above
Procedure: as §2, §3

[16] = Rate 125, evaluated after 21 days
[17] = Rate 250, evaluated after 21 days

Row | SMILES | percentage damage caused to the plant, five point scale [1] | percentage damage caused to the plant, five point scale [2] | percentage damage caused to the plant, five point scale [3] | percentage damage caused to the plant, five point scale (Lolium perenne (LOLPE) [4]) | percentage damage caused to the plant, five point scale (Setaria faberi (SETFA) [5]) | percentage damage caused to the plant, five point scale (Solanum nigrum (SOLNI) [6]) | percentage damage caused to the plant, five point scale [7] | percentage damage caused to the plant, five point scale [8] | percentage damage caused to the plant, five point scale [9] | percentage damage caused to the plant, five point scale (Lolium perenne (LOLPE) [10]) | percentage damage caused to the plant, five point scale (Setaria faberi (SETFA) [11]) | percentage damage caused to the plant, five point scale (Solanum nigrum (SOLNI) [12]) | further results
1 | CCn1nnnc1NC(=O)c1nn(C)c(=O)c(C2CCCCC2)c1Cl [Compound 1.002] | 5 (5=80-100%) | 5 (5=80-100%) | 5 (5=80-100%) | 5 (5=80-100%) | 5 (5=80-100%) | 5 (5=80-100%) | 5 (5=80-100%) | 5 (5=80-100%) | 5 (5=80-100%) | 5 (5=80-100%) | 5 (5=80-100%) | 5 (5=80-100%) | 
2 | CCCn1nnnc1NC(=O)c1nn(C)c(=O)c(C2CCCCC2)c1Cl [Compound 1.003] | 5 (5=80-100%) | 5 (5=80-100%) | 5 (5=80-100%) | 4 (4=60-79%) | 5 (5=80-100%) | 5 (5=80-100%) | 5 (5=80-100%) | 5 (5=80-100%) | 5 (5=80-100%) | 5 (5=80-100%) | 5 (5=80-100%) | 5 (5=80-100%) | 
3 | Cn1nnnc1NC(=O)c1nn(C)c(=O)c(C2CCCC2)c1Cl [Compound 1.005] | 5 (5=80-100%) | 5 (5=80-100%) | 5 (5=80-100%) | 5 (5=80-100%) | 5 (5=80-100%) | 5 (5=80-100%) | 5 (5=80-100%) | 5 (5=80-100%) | 5 (5=80-100%) | 5 (5=80-100%) | 5 (5=80-100%) | 5 (5=80-100%) | 
4 | CCCn1nnnc1NC(=O)c1nn(C)c(=O)c(C2CCCC2)c1Cl [Compound 1.006] | 5 (5=80-100%) | 5 (5=80-100%) | 5 (5=80-100%) | 5 (5=80-100%) | 5 (5=80-100%) | 5 (5=80-100%) | 5 (5=80-100%) | 5 (5=80-100%) | 4 (4=60-79%) | 5 (5=80-100%) | 5 (5=80-100%) | 5 (5=80-100%) | 
5 | Cn1nnnc1NC(=O)c1nn(C)c(=O)c(C2CCC(C)(C)CC2)c1Cl [Compound 1.017] | 5 (5=80-100%) | 5 (5=80-100%) | 5 (5=80-100%) | 5 (5=80-100%) | 5 (5=80-100%) | 5 (5=80-100%) | 5 (5=80-100%) | 5 (5=80-100%) | 4 (4=60-79%) | 5 (5=80-100%) | 5 (5=80-100%) | 5 (5=80-100%) | 
6 | CC1CCC(c2c(Cl)c(C(=O)Nc3nnnn3C)nn(C)c2=O)CC1 (centres unmarked) [Compound 1.022] | 5 (5=80-100%) | 5 (5=80-100%) | 5 (5=80-100%) | 5 (5=80-100%) | 5 (5=80-100%) | 5 (5=80-100%) | 5 (5=80-100%) | 5 (5=80-100%) | 5 (5=80-100%) | 5 (5=80-100%) | 5 (5=80-100%) | 5 (5=80-100%) | 
7 | Cn1nnnc1NC(=O)c1nn(C)c(=O)c(C2CCCCC2)c1Cl [Compound 1.030] | 5 (5=80-100%) | 5 (5=80-100%) | 4 (4=60-79%) | 5 (5=80-100%) | 5 (5=80-100%) | 5 (5=80-100%) | 5 (5=80-100%) | 5 (5=80-100%) | 2 (2=20-39%) | 5 (5=80-100%) | 5 (5=80-100%) | 5 (5=80-100%) | 
8 | Cn1nnnc1NC(=O)c1nn(C)c(=O)c(C2CCCCC2)c1Cl [Compound 1.031] | 5 (5=80-100%) | 4 (4=60-79%) | 4 (4=60-79%) | 4 (4=60-79%) | 5 (5=80-100%) | 5 (5=80-100%) | 5 (5=80-100%) | 5 (5=80-100%) | 4 (4=60-79%) | 3 (3=40-59%) | 4 (4=60-79%) | 5 (5=80-100%) | 
9 | Cn1nc(C(=O)C2C(=O)CCCC2=O)c(Cl)c(C2CCCCC2)c1=O [Compound A, 2-(4-chloro-5-cyclohexyl-1-methyl-6-oxo-pyridazine-3-carbonyl)cyclohexane-1,3-dione, reference compound] |  |  |  |  |  |  |  |  |  |  |  |  | damage to plant (100=total damage to plant; 0=no damage to plant) [13, 16]: 0; damage to plant (100=total damage to plant; 0=no damage to plant) [13, 17]: 20; damage to plant (100=total damage to plant; 0=no damage to plant) (Bidens pilosa (BIDPI); [16]): 0; damage to plant (100=total damage to plant; 0=no damage to plant) (Bidens pilosa (BIDPI); [17]): 40; damage to plant (100=total damage to plant; 0=no damage to plant) [14, 16]: 0; damage to plant (100=total damage to plant; 0=no damage to plant) [14, 17]: 20; damage to plant (100=total damage to plant; 0=no damage to plant) (Lolium perenne (LOLPE) [15]; [16]): 10; damage to plant (100=total damage to plant; 0=no damage to plant) (Lolium perenne (LOLPE) [15]; [17]): 20; damage to plant (100=total damage to plant; 0=no damage to plant) (Panicum milaceum (PANMI); [16]): 0; damage to plant (100=total damage to plant; 0=no damage to plant) (Panicum milaceum (PANMI); [17]): 0; damage to plant (100=total damage to plant; 0=no damage to plant) (Sida spinosa (SIDSP); [16]): 0; damage to plant (100=total damage to plant; 0=no damage to plant) (Sida spinosa (SIDSP); [17]): 0; damage to plant (100=total damage to plant; 0=no damage to plant) (Stellaria media (STEME); [16]): 50; damage to plant (100=total damage to plant; 0=no damage to plant) (Stellaria media (STEME); [17]): 60
